# Laboratory results published in patent US20240148707A1, “MODULATION OF DRUG-DRUG INTERACTIONS OF VADADUSTAT” (Akebia Therapeutics, Inc., priority 2021, published 2024).
# Like-named read-outs stand apart in the source and are kept apart here.
# Legend:
# [1] = Plasma pharmacokinetics, repeated once-daily administration to healthy adult men; format: in vivo, human; settings: first day of administration
# CYP2B6 = target: T1, CYP2B6 (Homo sapiens, UniProt P20813); assay: Enzyme inhibition (in vitro); format: in vitro ADME
# T1 sequence (P20813 1-491): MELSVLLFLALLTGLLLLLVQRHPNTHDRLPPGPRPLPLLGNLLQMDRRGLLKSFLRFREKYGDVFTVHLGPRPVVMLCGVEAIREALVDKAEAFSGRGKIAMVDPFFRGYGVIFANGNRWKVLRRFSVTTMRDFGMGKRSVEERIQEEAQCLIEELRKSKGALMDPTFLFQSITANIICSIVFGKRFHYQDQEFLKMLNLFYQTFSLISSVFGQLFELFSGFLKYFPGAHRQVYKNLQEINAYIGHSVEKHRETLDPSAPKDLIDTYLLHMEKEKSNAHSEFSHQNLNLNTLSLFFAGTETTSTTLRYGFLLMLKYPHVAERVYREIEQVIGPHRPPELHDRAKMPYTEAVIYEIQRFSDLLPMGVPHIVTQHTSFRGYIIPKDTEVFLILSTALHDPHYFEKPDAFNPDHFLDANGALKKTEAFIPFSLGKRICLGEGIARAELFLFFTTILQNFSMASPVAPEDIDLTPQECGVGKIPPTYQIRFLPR
# [2] = Phase I drug-drug interaction study with sevelamer carbonate; format: in vivo, human; settings: for clearance: read-out: Clearance (ClB) (converted); for Vd: read-out: Volume of distribution (Vc); for Tmax: median (minimum, maximum)
# Experimental: A phase I, open-label, fixed-sequence study was conducted in healthy adult subjects to assess the effect of sevelamer carbonate as phosphate binders on the pharmacokinetics of a single dose of vadadustat.
# Pharmacokinetics. A predose PK blood sample was collected on Day 1. After each dose of vadadustat administered (Days 1, 3, 5, and 7), blood samples for PK analysis were collected at the following time points: predose and 0.5, 1, 1.5, 2, 3, 4, 6, 9, 12, 16, 24, and 48 hours after each dose of vadadustat. The 48-hour postdose sample was collected before vadadustat administration on Days 3, 5, and 7. The following parameters were calculated and analyzed: AUC0-∞, AUC0-last, Cmax, Tmax, Kel, CIB, Vc/F, and t1/2.
# Subjects were dosed approximately at the same designated time on each dosing day, where applicable. Study drugs were administered with approximately 8 ounces (240 mL) of water at room temperature in a seated position. Subjects were instructed to drink the full 8 ounces of water, and not to chew or break the tablets/gelcaps.
# A single oral dose of vadadustat 300 mg (2×150 mg tablets) was administered on Days 1, 3, 5, and 7. Phosphate binder that is sevelamer carbonate (1600 mg, 2×800 mg tablets) was administered on Days 3, 5, and 7.
# The 9-day treatment period was conducted as follows: • Day 1: vadadustat administered immediately after consuming breakfast. • Day 2: wash-out (no investigational product administration). • Day 3: vadadustat administered concomitantly with the requisite phosphate binder immediately after consuming breakfast. • Day 4: wash-out (no investigational product administration). • Day 5: vadadustat administered in fasted condition and the phosphate binder administered 1 hour later (breakfast must be served within 2 minutes after phosphate binder administration and consumed immediately after it is served). • Day 6: wash-out (no investigational product administration). • Day 7: phosphate binder administered immediately after consuming breakfast; vadadustat administered 2 hours after the phosphate binder was administered. • Day 8: wash-out (no investigational product administration). • Day 9: subjects discharged from the Clinical Research Unit (CRU) after the 48-hour postdose PK blood sample has been collected.
# [3] = Phase I drug-drug interaction study with probenecid (Part 1, Arm 2); format: in vivo, human; settings: for AUC(0-inf) / AUC(0-t) / Cmax: both sexes, human, plasma, fasted
# Experimental: A phase I, open-label, 2-part study was conducted in healthy male and female subjects to evaluate the potential for interaction of cyclosporine (Part 1, Arm 1), probenecid (Part 1, Arm 2), and rifampin (Part 2) with vadadustat.
# On the morning of Day 1, subjects received a single oral dose of vadadustat (300 mg) as 2×150 mg tablets after at least a 10-hour overnight fast and remained fasted for at least 4 hours post-dose. Following a 2-day washout (Days 1 to 2), subjects received 1 oral probenecid 500 mg tablet Q12 h for 4 days (Days 3 to 6). On days that probenecid was administered alone (Days 3, 4, and 6), probenecid was administered in a fasted state 1 hour prior to a standard breakfast and 1 hour prior to an evening meal or snack. On Day 5, probenecid was co-administered with a single dose of vadadustat (300 mg as 2×150 mg tablets) following at least a 10-hour fast. Subjects remained fasted for at least 4 hours after dosing.
# On days vadadustat was administered (Day 1 and Day 5), blood samples for PK analysis were collected up to 48 hours postdose. In addition, on vadadustat dosing days, pooled urine samples were collected up to 24 hours post-dose. Subjects were discharged from the CRU on the morning of Day 7, after the final 48-hour post-dose PK sample had been collected. A follow-up phone call was conducted 30 days±2 days after the final dose.
# [4] = concomitant administration of phosphate binder vs vadadustat alone, ANOVA
# [5] = human, plasma, oral, 300 mg, vadadustat 300 mg alone, immediately after breakfast, mean ± SD
# [6] = human, plasma, oral, vadadustat 300 mg 2 hours after sevelamer carbonate 1600 mg with breakfast, mean ± SD
# [7] = human, plasma, oral, vadadustat 300 mg concomitantly with sevelamer carbonate 1600 mg, immediately after breakfast, mean ± SD
# [8] = human, plasma, oral, vadadustat 300 mg fasting, 1 hour prior to sevelamer carbonate 1600 mg, mean ± SD
# [9] = vadadustat 300 mg alone, immediately after breakfast, mean ± SD
smiles,measurement,setting,value
"O=C(O)CNC(=O)c1ncc(-c2cccc(Cl)c2)cc1O [Compound 1, {[5-(3-chlorophenyl)-3-hydroxypyridine-2-carbonyl]amino}acetic acid]",Tmax,[1]; 300 mg once a day,1.95 h
same,t1/2,[1]; 300 mg once a day,6.14 ± 0.763 h
same,Tmax,[1]; 600 mg once a day,1.98 h
same,inhibitory effect on CYP2B6,CYP2B6,inhibitory effect
same,reduction of vadadustat AUC0-last,[2]; [4],about 37%
same,reduction of vadadustat AUC0-∞,[2]; [4],about 37%
same,reduction of vadadustat Cmax,[2]; [4],about 40%
same,AUC(0-t),[2]; [5],185 ± 57.3 µg·h/mL
same,AUC(0-inf),"[2]; human, plasma, oral, 300 mg, vadadustat 300 mg alone, immediately after breakfast, mean ± SD, read-out: AUC0-∞",190 ± 57.2 µg·h/mL
same,clearance,[2]; [5],28.8 mL/min
same,Vd,[2]; [5],11.5 ± 2.84 L
same,Tmax,"[2]; human, plasma, oral, 300 mg, vadadustat 300 mg alone, immediately after breakfast",3.97 h
same,AUC(0-inf),"[2]; human, plasma, oral, concurrent vadadustat and sevelamer carbonate, read-out: geometric LS mean AUC0-∞",114 µg·h/mL
same,AUC(0-t),[2]; [6],151 ± 57.5 µg·h/mL
same,AUC(0-inf),"[2]; human, plasma, oral, vadadustat 300 mg 2 hours after sevelamer carbonate 1600 mg with breakfast, mean ± SD, read-out: AUC0-∞",154 ± 57.8 µg·h/mL
same,clearance,[2]; [6],38.3 mL/min
same,half-life,"[2]; human, plasma, oral, vadadustat 300 mg 2 hours after sevelamer carbonate 1600 mg with breakfast, mean ± SD, read-out: Elimination half-life (t1/2) (converted)",5.1 ± 0.97 h
same,Vd,[2]; [6],16.4 ± 7.04 L
same,Tmax,"[2]; human, plasma, oral, vadadustat 300 mg 2 hours after sevelamer carbonate 1600 mg with breakfast",2.99 h
same,AUC(0-t),[2]; [7],121 ± 50.4 µg·h/mL
same,AUC(0-inf),"[2]; human, plasma, oral, vadadustat 300 mg concomitantly with sevelamer carbonate 1600 mg, immediately after breakfast, mean ± SD, read-out: AUC0-∞",124 ± 51 µg·h/mL
same,clearance,[2]; [7],48 mL/min
same,Cmax,"[2]; human, plasma, oral, vadadustat 300 mg concomitantly with sevelamer carbonate 1600 mg, immediately after breakfast, mean ± SD, read-out: Cmax",16600 ± 5750 ng/mL
same,Vd,[2]; [7],19.4 ± 10.1 L
same,Tmax,"[2]; human, plasma, oral, vadadustat 300 mg concomitantly with sevelamer carbonate 1600 mg, immediately after breakfast",3.49 h
same,AUC(0-t),[2]; [8],152 ± 46.2 µg·h/mL
same,AUC(0-inf),"[2]; human, plasma, oral, vadadustat 300 mg fasting, 1 hour prior to sevelamer carbonate 1600 mg, mean ± SD, read-out: AUC0-∞",156 ± 48.5 µg·h/mL
same,clearance,[2]; [8],35.7 mL/min
same,Cmax,"[2]; human, plasma, oral, vadadustat 300 mg fasting, 1 hour prior to sevelamer carbonate 1600 mg, mean ± SD, read-out: Cmax",31300 ± 10600 ng/mL
same,Vd,[2]; [8],13.6 ± 5.04 L
same,Tmax,"[2]; human, plasma, oral, vadadustat 300 mg fasting, 1 hour prior to sevelamer carbonate 1600 mg",1.49 h
same,Cmax,[2]; [9],26700 ± 6610 ng/mL
same,Elimination half-life (t1/2),[2]; [9],4.81 ± 1.15 h
same,Elimination half-life (t1/2),"[2]; vadadustat 300 mg concomitantly with sevelamer carbonate 1600 mg, immediately after breakfast, mean ± SD",4.70 ± 0.90 h
same,changes in vadadustat exposure,[2]; vadadustat administered 1 hour prior to sevelamer carbonate,within the prespecified no-effect boundaries of 80% to 125%
same,changes in vadadustat exposure,[2]; vadadustat administered 2 hours after sevelamer carbonate,within the prespecified no-effect boundaries of 80% to 125%
same,AUC(0-inf),"[3]; oral, vadadustat 300 mg single dose + probenecid 500 mg Q12h (multiple doses), read-out: AUCinf, geometric LSM, Treatment V + P",427 µg·h/mL
same,AUC(0-t),"[3]; oral, vadadustat 300 mg single dose + probenecid 500 mg Q12h (multiple doses), read-out: AUClast, geometric LSM, Treatment V + P",417 µg·h/mL
same,Cmax,"[3]; oral, vadadustat 300 mg single dose + probenecid 500 mg Q12h (multiple doses), read-out: Cmax, geometric LSM, Treatment V + P",48800 ng/mL
same,AUC(0-inf),"[3]; vadadustat 300 mg alone, single oral dose, read-out: AUCinf, geometric LSM, Treatment V",234 µg·h/mL
same,AUC(0-t),"[3]; vadadustat 300 mg alone, single oral dose, read-out: AUClast, geometric LSM, Treatment V",233 µg·h/mL
same,Cmax,"[3]; vadadustat 300 mg alone, single oral dose, read-out: Cmax, geometric LSM, Treatment V",47500 ng/mL
same,tolerability,"[3]; during treatment with probenecid, healthy subjects",tolerated
same,change of Cmax values,[3]; in combination with probenecid,relatively unchanged
same,urinary excretion,[3]; in combination with probenecid,decreased
